Assays:
MCF7DX = MCF7DX subline; cited from earlier work
[1] = patients with refractory/relapsed non-Hodgkin's lymphoma; cited from earlier work
ER+ tumors = conditions: clinical specimens; cited from earlier work
[2] = test system: HCT 116 human colon carcinoma; test: MTT cell growth inhibition, HCT 116; assay type: cell-based; conditions: Homo sapiens; HCT 116, MTT, 5-10 days
Procedure: (§1) The following experiment confirms that the elsamitrucin salts made in accordance with the teachings of the present disclosure retain their in vitro anti-neoplastic activity when compared to elsamitrucin base. Elsamitrucin and elsamitrucin tosylate were tested in vitro using: B16F10 (murine […]), HCT 116 (human colon), HT29 (human colon) and SK-MES-1 (human non-small cell lung carcinoma). Cell growth inhibition was evaluated in 96-well micro-culture plates with a semi-automated MTT (3-(4,5-dimethylthiazol-2-yl)-2,5-diphenyltetrazolium bromide) assay. […]
(§2) Cell culture plates seeded with test cells and various concentrations of elsamitrucin solutions were placed in a humidified incubator at 37° C., with CO2 and 95% air for 5-10 days. […] Absorbance was monitored at a wavelength of 595 nm, and at a reference wavelength of 650 nm, using a TECAN® GENios mocroplate reader. In all experiments, absorbance data was acquired for each agent at two overlapping concentration ranges. […]
(§3) The results of each test were stored and imported into PRISM® 3.03 for graphical analysis and determination of IC50 values. All results were graphed as a percentage of controlled absorbance versus the drug concentration. […]

[3] = test system: SK-MES-1 human non-small cell lung carcinoma; test: MTT cell growth inhibition, SK-MES-1; assay type: cell-based; conditions: Homo sapiens; SK-MES-1, MTT, 5-10 days
Procedure: as §1, §2, §3

[4] = test system: B16F10 murine melanoma cells; test: MTT cell growth inhibition, B16F10; assay type: cell-based; conditions: Mus musculus, B16-F10, 5-10 days
Procedure: as §1, §2, §3

MCF7 = conditions: ER+ MCF7 cell line; cited from earlier work
[5] = test system: HT29 human colon carcinoma; test: MTT cell growth inhibition, HT29; assay type: cell-based; conditions: Homo sapiens, HT-29, 5-10 days
Procedure: as §1, §2, §3

MDA-MB-231 = conditions: ER− MDA-MB-231 cell line; cited from earlier work
[6] = stability study of Elsamitrucin F2 RTU, impurities profile by HPLC;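 further: formulation kept in nitrogen-flushed sealed amber vials, sampled at time points, diluted to roughly 0.1 mg/mL and analysed by gradient HPLC on a C18 column, water/acetonitrile with trifluoroacetic acid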
Procedure: Design of the Stability Study: 250 mL of Elsamitrucin Tosylate stock solution (10 mg/mL free base, 4.77% Mannitol, pH 4.0) was prepared. 80×5 mL amber serum vials were filled with 2.5 mL of the Elsamitrucin Tosylate stock solution, flushed with nitrogen and sealed with stoppers. These sealed vials, in both upright and inverted positions, were stored in the following temperature cabinets at 4, 25, 40 and 60° C., respectively. […] Samples were removed for pH measurement and high performance liquid chromatography (HPLC) analysis at the various time points. At 60° C., measurements were made at 0, 2, 7, 10, 14 days. At 40° C., measurements were made at 0, 7, 14, 28, 38, 64, 77, 84 days. At 25° C., measurements were made at 0, 7, 14, 28, 64, 84 days. At 4° C., measures were made at 0, 7, 14, 28, 64, 84 days.
For the present stability study HPLC weight/weight assay of elsamitrucin was done in addition to the determination of related impurities. The reagents for the HPLC assay are as follows—HPLC grade acetonitrile and trifluoroacetic acid (Lot #44093418) were obtained from EMD Science. Water was purified with Millipore Milli-Q system. The apparatus was the chromatographic system which consisted of a Waters Alliance 2695 separation module equipped with a column heater, an autosampler and a Waters 2996 photodiode array detector. Data acquisition was controlled by Waters Empower Pro 2 software. As the column a Cadenza Cd-C18, 3 μm, 4.6×150 mm (Silverstone Sciences) was used. Detection was made at 267 nm. Mobile phase A contained water with 0.1% trifluoroacetic acid. 2 mL of trifluoroacetic acid was pipetted to 2000 mL of water. Mobile phase B contained acetonitrile with 0.08% trifluoroacetic acid. 1 mL of trifluoroacetic acid was pipetted to 1250 mL of acetonitrile. 1 L of water was mixed thoroughly with 1 L of acetonitrile.
HPLC analysis was run with a gradient at flow rate equal to 1.0 mL/min. The oven temperature was set at 40° C. The autosampler temperature was at 25° C. The injection volume was 10 μL. Sample Diluent—Acetonitrile/water (50/50, v/v): 1 L of water was mixed thoroughly with 1 L of acetonitrile. Sample Blank—Acetonitrile/water (50/50, v/v): Sample Diluent was used as Sample Blank. Standard Solution—˜0.1 mg/mL of Elsamitrucin: 26.32 mg of Elsamitrucin Tosylate was accurately weighed and dissolved in a 200 mL of Sample Diluent in a 200 mL volumetric flask. Sample Solution Preparation (one vial per time point): 2 mL of Elsamitrucin RTU solution was pipetted to a 20 mL volumetric flask and diluted with 18 mL of Sample Diluent. 2 mL of the diluted solution was further diluted with 18 mL of Sample Diluent in a 20 mL volumetric flask to give the final analytical sample (with concentration at about 0.1 mg/mL). The retention time for Elsamitrucin was about 11.7 minutes.

ER− tumors = conditions: clinical specimens; cited from earlier work

Structure (SMILES): CO[C@H]1[C@@H](O)[C@@H](C)OC(O[C@H]2[C@H](Oc3cccc4c(O)c5c(=O)oc6ccc(C)c7c(=O)oc(c34)c5c67)O[C@H](C)[C@H](O)[C@]2(C)O)[C@@H]1N (stereo partly drawn) [Elsamitrucin, benzo(h)(1)benzopyrano(5,4,3-cde)(1)ebnzopyran-5,12-dione,10((2-O-(2-amino-2,6-dideoxy-3-O-methyl-alpha-D-galactopyranosyl)-6-deoxy-3-C-methyl-beta-D-galactopyranosyl)oxy)-6-hydroxy-1-methyl]
- cross-resistance to DX (MCF7DX): cross-resistant
- elsamtrucin-associated toxicity [1]: relatively mild
- minimal inhibiting concentrations (ER+ tumors): 0.1 micrograms/ml
- IC50 [2]: 74 nM
- IC50 [3]: 42 nM
- IC50 [4]: 24 nM
- IC50 antiproliferative effect (MCF7): 0.25 micrograms/ml
- IC50 [5]: 95 nM
- IC50 antiproliferative effect (MDA-MB-231): 0.21 micrograms/ml
- Area Percent of HPLC peak ([6]; 10 mg/mL ELSA RTU Formulation 2, inverted, 5° C., Day 7): 97.89 Area Percent
- Area Percent of HPLC peak ([6]; 10 mg/mL ELSA RTU Formulation 2, inverted, 5° C., Day 14): 97.70 Area Percent
- Area Percent of HPLC peak ([6]; 10 mg/mL ELSA RTU Formulation 2, inverted, 5° C., Day 28): 98.41 Area Percent
- Area Percent of HPLC peak ([6]; 10 mg/mL ELSA RTU Formulation 2, inverted, 5° C., Day 64): 97.54 Area Percent
- Area Percent of HPLC peak ([6]; 10 mg/mL ELSA RTU Formulation 2, inverted, 5° C., Day 84): 98.15 Area Percent
- Area Percent of HPLC peak ([6]; 10 mg/mL ELSA RTU Formulation 2, inverted, 5° C., Initial): 97.63 Area Percent
- Area Percent of HPLC peak ([6]; 10 mg/mL ELSA RTU Formulation 2, inverted, 25° C., Day 7): 97.71 Area Percent
- Area Percent of HPLC peak ([6]; 10 mg/mL ELSA RTU Formulation 2, inverted, 25° C., Day 14): 97.73 Area Percent
- Area Percent of HPLC peak ([6]; 10 mg/mL ELSA RTU Formulation 2, inverted, 25° C., Day 28): 98.37 Area Percent
- Area Percent of HPLC peak ([6]; 10 mg/mL ELSA RTU Formulation 2, inverted, 25° C., Day 64): 97.42 Area Percent
- Area Percent of HPLC peak ([6]; 10 mg/mL ELSA RTU Formulation 2, inverted, 25° C., Day 84): 97.28 Area Percent
- Area Percent of HPLC peak ([6]; 10 mg/mL ELSA RTU Formulation 2, inverted, 25° C., Initial): 97.63 Area Percent
- Area Percent of HPLC peak ([6]; 10 mg/mL ELSA RTU Formulation 2, inverted, 40° C., Day 7): 97.75 Area Percent
- Area Percent of HPLC peak ([6]; 10 mg/mL ELSA RTU Formulation 2, inverted, 40° C., Day 14): 97.64 Area Percent
- Area Percent of HPLC peak ([6]; 10 mg/mL ELSA RTU Formulation 2, inverted, 40° C., Day 28): 97.70 Area Percent
- Area Percent of HPLC peak ([6]; 10 mg/mL ELSA RTU Formulation 2, inverted, 40° C., Day 38): 98.04 Area Percent
- Area Percent of HPLC peak ([6]; 10 mg/mL ELSA RTU Formulation 2, inverted, 40° C., Day 64): 97.04 Area Percent
- Area Percent of HPLC peak ([6]; 10 mg/mL ELSA RTU Formulation 2, inverted, 40° C., Day 77): 96.84 Area Percent
- Area Percent of HPLC peak ([6]; 10 mg/mL ELSA RTU Formulation 2, inverted, 40° C., Day 84): 96.64 Area Percent
- Area Percent of HPLC peak ([6]; 10 mg/mL ELSA RTU Formulation 2, inverted, 40° C., Initial): 97.63 Area Percent
- Area Percent of HPLC peak ([6]; 10 mg/mL ELSA RTU Formulation 2, inverted, 60° C., Day 2): 97.73 Area Percent
- Area Percent of HPLC peak ([6]; 10 mg/mL ELSA RTU Formulation 2, inverted, 60° C., Day 7): 96.86 Area Percent
- Area Percent of HPLC peak ([6]; 10 mg/mL ELSA RTU Formulation 2, inverted, 60° C., Day 10): 96.82 Area Percent
- Area Percent of HPLC peak ([6]; 10 mg/mL ELSA RTU Formulation 2, inverted, 60° C., Day 14): 96.03 Area Percent
- Area Percent of HPLC peak ([6]; 10 mg/mL ELSA RTU Formulation 2, inverted, 60° C., Initial): 97.63 Area Percent
- Area Percent of HPLC peak ([6]; 10 mg/mL ELSA RTU Formulation 2, upright, 5° C., Day 7): 97.86 Area Percent
- Area Percent of HPLC peak ([6]; 10 mg/mL ELSA RTU Formulation 2, upright, 5° C., Day 14): 97.63 Area Percent
- Area Percent of HPLC peak ([6]; 10 mg/mL ELSA RTU Formulation 2, upright, 5° C., Day 28): 97.63 Area Percent
- Area Percent of HPLC peak ([6]; 10 mg/mL ELSA RTU Formulation 2, upright, 5° C., Day 64): 97.39 Area Percent
- Area Percent of HPLC peak ([6]; 10 mg/mL ELSA RTU Formulation 2, upright, 5° C., Day 84): 97.33 Area Percent
- Area Percent of HPLC peak ([6]; 10 mg/mL ELSA RTU Formulation 2, upright, 5° C., Initial): 97.63 Area Percent
- Area Percent of HPLC peak ([6]; 10 mg/mL ELSA RTU Formulation 2, upright, 40° C., Day 7): 97.77 Area Percent
- Area Percent of HPLC peak ([6]; 10 mg/mL ELSA RTU Formulation 2, upright, 40° C., Day 14): 97.71 Area Percent
- Area Percent of HPLC peak ([6]; 10 mg/mL ELSA RTU Formulation 2, upright, 40° C., Day 28): 97.62 Area Percent
- Area Percent of HPLC peak ([6]; 10 mg/mL ELSA RTU Formulation 2, upright, 40° C., Day 38): 97.76 Area Percent
- Area Percent of HPLC peak ([6]; 10 mg/mL ELSA RTU Formulation 2, upright, 40° C., Day 64): 96.86 Area Percent
- Area Percent of HPLC peak ([6]; 10 mg/mL ELSA RTU Formulation 2, upright, 40° C., Day 77): 96.80 Area Percent
- Area Percent of HPLC peak ([6]; 10 mg/mL ELSA RTU Formulation 2, upright, 40° C., Day 84): 97.31 Area Percent
- Area Percent of HPLC peak ([6]; 10 mg/mL ELSA RTU Formulation 2, upright, 40° C., Initial): 97.63 Area Percent
- Area Percent of HPLC peak ([6]; 10 mg/mL ELSA RTU Formulation 12, upright, 25° C., Day 7): 97.86 Area Percent
- Area Percent of HPLC peak ([6]; 10 mg/mL ELSA RTU Formulation 12, upright, 25° C., Day 14): 97.67 Area Percent
- Area Percent of HPLC peak ([6]; 10 mg/mL ELSA RTU Formulation 12, upright, 25° C., Day 28): 98.32 Area Percent
- Area Percent of HPLC peak ([6]; 10 mg/mL ELSA RTU Formulation 12, upright, 25° C., Day 64): 97.68 Area Percent
- Area Percent of HPLC peak ([6]; 10 mg/mL ELSA RTU Formulation 12, upright, 25° C., Day 84): 98.08 Area Percent
- Area Percent of HPLC peak ([6]; 10 mg/mL ELSA RTU Formulation 12, upright, 25° C., Initial): 97.63 Area Percent
- Area Percent of HPLC peak ([6]; 10 mg/mL ELSA RTU Formulation 12, upright, 60° C., Day 2): 97.83 Area Percent
- Area Percent of HPLC peak ([6]; 10 mg/mL ELSA RTU Formulation 12, upright, 60° C., Day 7): 96.93 Area Percent
- Area Percent of HPLC peak ([6]; 10 mg/mL ELSA RTU Formulation 12, upright, 60° C., Day 10): 95.99 Area Percent
- Area Percent of HPLC peak ([6]; 10 mg/mL ELSA RTU Formulation 12, upright, 60° C., Day 14): 95.79 Area Percent
- Area Percent of HPLC peak ([6]; 10 mg/mL ELSA RTU Formulation 12, upright, 60° C., Initial): 97.63 Area Percent
- minimal inhibiting concentrations (ER− tumors): 3.5 micrograms/ml

From patent US20110251143A1, “STABLE ELSAMITRUCIN SALT FORMULATIONS” (Spectrum Pharmaceuticals, Inc., priority 2007, published 2011)
